Results taken from publication doi:10.1101/2021.08.17.455204v3 (biorxiv, 2022).

Experiments:
[1] = molecular target: SERCA2a (guinea-pig cardiac SR microsomes) (Cavia porcellus, UniProt A0A286XD73); experiment: […]-ATP hydrolysis; format: biochemical; settings: 37 °C; normal guinea-pig heart SR microsomes; activation; PLN present
Insulin = Insulin (Rattus norvegicus, UniProt P15127); experiment: biochemical; settings: read-out: % inhibition
[2] = molecular target: Peptidase, Angiotensin Converting Enzyme (Oryctolagus cuniculus, UniProt P12822); experiment: biochemical; settings: read-out: % inhibition
Aldosterone = Aldosterone (Rattus norvegicus, UniProt P22199); experiment: biochemical; settings: read-out: % inhibition
[3] = molecular target: Na+/K+ ATPase alpha1 isoform from dog kidney (Canis lupus, UniProt P50997); experiment: […]-ATP hydrolysis, ouabain-sensitive ATPase inhibition; format: biochemical
Androgen (Testosterone) = Androgen (Testosterone) (Homo sapiens, UniProt P10275); experiment: biochemical; settings: read-out: % inhibition
Progesterone PR-B = Progesterone PR-B (Homo sapiens, UniProt P06401); experiment: biochemical; settings: read-out: % inhibition
HMG-CoA Reductase = HMG-CoA Reductase (Homo sapiens, UniProt P04035); experiment: biochemical; settings: read-out: % inhibition
Peptidase, Renin = Peptidase, Renin (Homo sapiens, UniProt P00797); experiment: biochemical; settings: read-out: % inhibition
Monoamine Oxidase MAO-B = Monoamine Oxidase MAO-B (Homo sapiens, UniProt P27338); experiment: biochemical; settings: read-out: % inhibition
[4] = molecular target: Protein Tyrosine Kinase, Src (Homo sapiens, UniProt P12931); experiment: biochemical; settings: read-out: % inhibition
Monoamine Oxidase MAO-A = Monoamine Oxidase MAO-A (Homo sapiens, UniProt P21397); experiment: biochemical; settings: read-out: % inhibition
[5] = molecular target: Protein Tyrosine Kinase, ABL1 (Homo sapiens, UniProt P00519); experiment: biochemical; settings: read-out: % inhibition
CYP450, 19 = CYP450, 19 (Homo sapiens, UniProt P11511); experiment: biochemical; settings: read-out: % inhibition
[6] = molecular target: Nicotinic Acetylcholine α3β4 (Homo sapiens, UniProt P30926+P32297); experiment: biochemical; settings: read-out: % inhibition
Opiate μ (OP3, MOP) = Opiate μ (OP3, MOP) (Homo sapiens, UniProt P35372); experiment: biochemical; settings: read-out: % inhibition
[7] = molecular target: Transporter, Norepinephrine (NET) (Homo sapiens, UniProt P23975); experiment: biochemical; settings: read-out: % inhibition
Muscarinic M3 = Muscarinic M3 (Homo sapiens, UniProt P20309); experiment: biochemical; settings: read-out: % inhibition
Adrenergic β1 = Adrenergic β1 (Homo sapiens, UniProt P08588); experiment: biochemical; settings: read-out: % inhibition
Estrogen ERβ = Estrogen ERβ (Homo sapiens, UniProt Q92731); experiment: biochemical; settings: read-out: % inhibition
Adrenergic α2A = Adrenergic α2A (Homo sapiens, UniProt P08913); experiment: biochemical; settings: read-out: % inhibition
Potassium Channel hERG = Potassium Channel hERG (Homo sapiens, UniProt Q12809); experiment: in vitro; settings: crude membrane preparations
Estrogen ERα = Estrogen ERα (Homo sapiens, UniProt P03372); experiment: biochemical; settings: read-out: % inhibition
Dopamine D1 = Dopamine D1 (Homo sapiens, UniProt P21728); experiment: biochemical; settings: read-out: % inhibition
Angiotensin AT1 = Angiotensin AT1 (Homo sapiens, UniProt P30556); experiment: biochemical; settings: read-out: % inhibition
Muscarinic M2 = Muscarinic M2 (Homo sapiens, UniProt P08172); experiment: biochemical; settings: read-out: % inhibition
Dopamine D3 = Dopamine D3 (Homo sapiens, UniProt P35462); experiment: biochemical; settings: read-out: % inhibition
Adenosine A1 = Adenosine A1 (Homo sapiens, UniProt P30542); experiment: biochemical; settings: read-out: % inhibition
Histamine H1 = Histamine H1 (Homo sapiens, UniProt P35367); experiment: biochemical; settings: read-out: % inhibition
Adenosine A2A = Adenosine A2A (Homo sapiens, UniProt P29274); experiment: biochemical; settings: read-out: % inhibition
Sigma σ1 = Sigma σ1 (Homo sapiens, UniProt Q99720); experiment: biochemical; settings: read-out: % inhibition
Angiotensin AT2 = Angiotensin AT2 (Homo sapiens, UniProt P50052); experiment: biochemical; settings: read-out: % inhibition
Dopamine D2s = Dopamine D2s (Homo sapiens, UniProt P14416); experiment: biochemical; settings: read-out: % inhibition
Sigma σ2 = Sigma σ2 (Rattus norvegicus, UniProt Q5U3Y7); experiment: biochemical; settings: read-out: % inhibition
Adrenergic β2 = Adrenergic β2 (Homo sapiens, UniProt P07550); experiment: biochemical; settings: read-out: % inhibition
Adrenergic α1A = Adrenergic α1A (Rattus norvegicus, UniProt P43140); experiment: biochemical; settings: read-out: % inhibition
Adrenergic α1B = Adrenergic α1B (Rattus norvegicus, UniProt P15823); experiment: biochemical; settings: read-out: % inhibition
Muscarinic M5 = Muscarinic M5 (Homo sapiens, UniProt P08912); experiment: biochemical; settings: read-out: % inhibition
Glucocorticoid = Glucocorticoid (Homo sapiens, UniProt P04150); experiment: biochemical; settings: read-out: % inhibition

Chain of Adenosine A1 (P30542 whole entry): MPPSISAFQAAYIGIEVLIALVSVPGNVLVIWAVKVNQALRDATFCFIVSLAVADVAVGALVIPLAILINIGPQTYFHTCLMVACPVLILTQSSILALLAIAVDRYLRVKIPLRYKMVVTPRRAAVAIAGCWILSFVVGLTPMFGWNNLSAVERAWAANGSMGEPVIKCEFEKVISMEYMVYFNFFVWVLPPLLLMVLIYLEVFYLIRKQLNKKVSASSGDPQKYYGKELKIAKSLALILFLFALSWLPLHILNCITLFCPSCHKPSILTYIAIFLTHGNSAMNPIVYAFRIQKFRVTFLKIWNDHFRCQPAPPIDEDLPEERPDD
Chain of Transporter, Norepinephrine (NET) (P23975 whole entry): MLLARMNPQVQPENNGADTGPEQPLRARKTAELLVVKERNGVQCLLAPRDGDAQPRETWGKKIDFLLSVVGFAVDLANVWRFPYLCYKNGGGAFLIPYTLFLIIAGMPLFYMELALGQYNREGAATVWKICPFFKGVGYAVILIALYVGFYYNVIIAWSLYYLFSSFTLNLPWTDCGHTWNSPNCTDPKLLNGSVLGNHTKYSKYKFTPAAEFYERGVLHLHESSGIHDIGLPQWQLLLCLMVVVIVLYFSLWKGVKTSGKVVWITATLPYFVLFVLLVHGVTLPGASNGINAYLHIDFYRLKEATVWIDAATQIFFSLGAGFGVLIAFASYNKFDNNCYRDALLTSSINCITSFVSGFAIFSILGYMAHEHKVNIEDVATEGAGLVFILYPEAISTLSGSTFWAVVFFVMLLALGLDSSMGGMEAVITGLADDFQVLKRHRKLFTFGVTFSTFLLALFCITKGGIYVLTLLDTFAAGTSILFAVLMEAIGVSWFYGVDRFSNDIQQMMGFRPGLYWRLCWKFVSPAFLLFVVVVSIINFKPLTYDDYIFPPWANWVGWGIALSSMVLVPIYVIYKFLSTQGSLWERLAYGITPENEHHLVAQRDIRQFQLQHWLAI
Chain of Dopamine D3 (P35462 whole entry): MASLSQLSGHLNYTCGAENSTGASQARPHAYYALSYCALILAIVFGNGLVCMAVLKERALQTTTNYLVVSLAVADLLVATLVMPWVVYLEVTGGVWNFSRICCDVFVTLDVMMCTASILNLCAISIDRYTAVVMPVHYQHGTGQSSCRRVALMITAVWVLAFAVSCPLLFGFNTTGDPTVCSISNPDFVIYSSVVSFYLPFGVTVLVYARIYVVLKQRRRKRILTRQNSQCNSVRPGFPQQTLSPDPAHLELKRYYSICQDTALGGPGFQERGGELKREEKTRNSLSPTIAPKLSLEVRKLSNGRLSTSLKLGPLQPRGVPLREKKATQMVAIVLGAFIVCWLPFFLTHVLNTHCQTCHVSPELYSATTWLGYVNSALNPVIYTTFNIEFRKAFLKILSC
Chain of SERCA2a (guinea-pig cardiac SR microsomes) (A0A286XD73 1-997): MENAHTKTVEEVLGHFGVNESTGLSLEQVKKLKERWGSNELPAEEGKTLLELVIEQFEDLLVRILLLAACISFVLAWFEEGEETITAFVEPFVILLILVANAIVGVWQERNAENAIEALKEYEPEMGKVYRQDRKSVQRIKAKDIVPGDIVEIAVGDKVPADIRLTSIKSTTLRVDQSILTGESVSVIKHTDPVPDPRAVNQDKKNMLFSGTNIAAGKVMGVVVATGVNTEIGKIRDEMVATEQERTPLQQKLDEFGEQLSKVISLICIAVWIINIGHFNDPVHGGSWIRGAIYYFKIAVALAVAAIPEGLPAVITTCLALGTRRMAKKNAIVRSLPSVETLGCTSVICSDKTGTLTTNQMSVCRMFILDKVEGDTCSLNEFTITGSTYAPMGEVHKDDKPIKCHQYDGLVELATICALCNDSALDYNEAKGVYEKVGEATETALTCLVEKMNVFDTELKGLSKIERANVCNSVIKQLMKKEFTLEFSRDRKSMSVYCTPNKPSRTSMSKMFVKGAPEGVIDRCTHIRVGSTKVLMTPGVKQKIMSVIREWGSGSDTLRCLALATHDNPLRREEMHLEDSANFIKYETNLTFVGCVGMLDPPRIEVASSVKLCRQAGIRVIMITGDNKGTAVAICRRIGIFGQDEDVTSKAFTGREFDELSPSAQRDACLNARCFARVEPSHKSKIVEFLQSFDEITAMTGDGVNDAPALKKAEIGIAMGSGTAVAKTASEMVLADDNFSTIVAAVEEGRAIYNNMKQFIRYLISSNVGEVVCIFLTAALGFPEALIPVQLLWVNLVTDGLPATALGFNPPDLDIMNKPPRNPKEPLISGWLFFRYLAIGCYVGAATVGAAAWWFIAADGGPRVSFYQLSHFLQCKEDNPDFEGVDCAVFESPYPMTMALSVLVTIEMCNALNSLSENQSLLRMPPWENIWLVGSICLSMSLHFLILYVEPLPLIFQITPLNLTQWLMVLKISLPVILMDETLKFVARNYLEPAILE
Chain of SERCA2a (guinea-pig cardiac SR microsomes) (A0A286XLC6 1-52 partner): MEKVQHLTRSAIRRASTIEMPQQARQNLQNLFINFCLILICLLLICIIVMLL
Chain of Angiotensin AT1 (P30556 whole entry): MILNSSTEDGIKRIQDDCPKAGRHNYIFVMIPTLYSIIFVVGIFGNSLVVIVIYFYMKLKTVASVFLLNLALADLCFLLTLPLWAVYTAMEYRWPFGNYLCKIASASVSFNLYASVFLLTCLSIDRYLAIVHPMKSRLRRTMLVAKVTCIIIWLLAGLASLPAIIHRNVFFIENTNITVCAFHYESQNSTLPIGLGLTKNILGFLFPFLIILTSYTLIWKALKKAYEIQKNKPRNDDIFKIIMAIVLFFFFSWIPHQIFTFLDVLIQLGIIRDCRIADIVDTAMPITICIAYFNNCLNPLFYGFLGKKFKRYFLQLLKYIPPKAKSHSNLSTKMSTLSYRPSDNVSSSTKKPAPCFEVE
Chain of Adrenergic β1 (P08588 whole entry): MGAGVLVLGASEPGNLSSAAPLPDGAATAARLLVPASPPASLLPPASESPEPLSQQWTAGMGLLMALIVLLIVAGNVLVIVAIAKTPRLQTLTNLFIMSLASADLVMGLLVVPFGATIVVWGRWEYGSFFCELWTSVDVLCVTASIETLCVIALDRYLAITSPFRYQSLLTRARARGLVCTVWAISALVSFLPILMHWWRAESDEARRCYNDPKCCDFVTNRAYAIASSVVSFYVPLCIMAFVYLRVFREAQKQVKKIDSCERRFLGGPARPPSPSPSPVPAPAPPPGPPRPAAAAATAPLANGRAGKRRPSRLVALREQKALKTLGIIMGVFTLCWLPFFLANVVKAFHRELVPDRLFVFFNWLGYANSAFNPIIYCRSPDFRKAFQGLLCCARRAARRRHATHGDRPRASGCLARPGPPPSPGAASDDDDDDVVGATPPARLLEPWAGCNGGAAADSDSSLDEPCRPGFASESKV
Chain of Sigma σ2 (Q5U3Y7 whole entry): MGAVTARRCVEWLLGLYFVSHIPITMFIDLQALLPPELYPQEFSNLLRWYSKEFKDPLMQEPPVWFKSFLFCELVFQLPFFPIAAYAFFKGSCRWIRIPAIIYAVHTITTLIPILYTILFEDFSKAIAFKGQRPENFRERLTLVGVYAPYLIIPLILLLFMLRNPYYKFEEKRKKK
Chain of Adrenergic β2 (P07550 whole entry): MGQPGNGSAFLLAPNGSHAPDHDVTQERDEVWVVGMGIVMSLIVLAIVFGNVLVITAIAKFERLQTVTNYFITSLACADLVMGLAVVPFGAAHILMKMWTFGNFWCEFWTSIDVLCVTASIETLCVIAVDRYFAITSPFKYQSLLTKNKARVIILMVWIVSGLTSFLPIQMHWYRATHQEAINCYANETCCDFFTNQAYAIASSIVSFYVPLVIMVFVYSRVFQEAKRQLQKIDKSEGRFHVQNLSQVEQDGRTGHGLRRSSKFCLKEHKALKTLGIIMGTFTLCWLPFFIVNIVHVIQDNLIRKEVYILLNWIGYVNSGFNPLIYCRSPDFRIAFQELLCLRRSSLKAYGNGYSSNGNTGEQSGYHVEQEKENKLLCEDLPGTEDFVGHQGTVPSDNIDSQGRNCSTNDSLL
Chain of Monoamine Oxidase MAO-B (P27338 whole entry): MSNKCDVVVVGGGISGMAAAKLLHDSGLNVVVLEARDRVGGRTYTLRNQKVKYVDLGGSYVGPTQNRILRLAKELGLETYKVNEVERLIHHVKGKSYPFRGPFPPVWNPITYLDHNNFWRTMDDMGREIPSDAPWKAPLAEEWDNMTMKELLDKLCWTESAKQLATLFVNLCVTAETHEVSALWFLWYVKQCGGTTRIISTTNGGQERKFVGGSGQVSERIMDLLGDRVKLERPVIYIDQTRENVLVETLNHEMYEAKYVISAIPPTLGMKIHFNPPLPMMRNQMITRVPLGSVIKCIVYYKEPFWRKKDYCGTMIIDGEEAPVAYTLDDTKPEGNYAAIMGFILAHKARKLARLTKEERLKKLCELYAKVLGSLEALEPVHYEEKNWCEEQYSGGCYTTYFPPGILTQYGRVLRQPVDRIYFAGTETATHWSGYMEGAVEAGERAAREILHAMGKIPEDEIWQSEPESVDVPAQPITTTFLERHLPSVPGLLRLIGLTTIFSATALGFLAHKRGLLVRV
Chain of CYP450, 19 (P11511 whole entry): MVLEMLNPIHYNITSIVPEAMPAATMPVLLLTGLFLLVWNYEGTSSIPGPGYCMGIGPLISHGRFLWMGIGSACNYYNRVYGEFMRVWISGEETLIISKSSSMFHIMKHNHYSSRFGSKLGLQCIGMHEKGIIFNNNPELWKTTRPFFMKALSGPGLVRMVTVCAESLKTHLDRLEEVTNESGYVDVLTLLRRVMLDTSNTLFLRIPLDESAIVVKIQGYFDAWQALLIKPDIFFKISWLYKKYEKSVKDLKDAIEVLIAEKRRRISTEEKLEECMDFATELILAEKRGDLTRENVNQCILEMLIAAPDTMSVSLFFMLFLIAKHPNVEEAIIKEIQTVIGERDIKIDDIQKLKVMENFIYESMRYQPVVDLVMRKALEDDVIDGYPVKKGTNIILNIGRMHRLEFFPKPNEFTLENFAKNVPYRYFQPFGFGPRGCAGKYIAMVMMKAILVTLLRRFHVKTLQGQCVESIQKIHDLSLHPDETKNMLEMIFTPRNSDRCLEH

With `C[C@]12CCC(=NOCC(=O)O)C[C@@H]1[C@H](O)C[C@@H]1[C@@H]2CC[C@]2(C)C(=O)CC[C@@H]12` (mixture of isomers) [PST3093, (E,Z)-[(6-beta-hydroxy-17-oxoandrostan-3-ylidene)amino]oxyacetic acid] as the molecule, how does the “% reduction of KdCa at 100 nM” value [1] read?
Its value is ~ 20%.

What about the inhibition at 10 µM (Insulin) of the same molecule?
The inhibition at 10 µM was 6%.

What about the inhibition at 10 µM [2] of the same molecule?
The inhibition at 10 µM was 3%.

What about the inhibition at 10 µM (Aldosterone) of the same molecule?
The inhibition at 10 µM was 5%.

And the IC50 [3]?
Its IC50 is greater than 100 µM.

And the inhibition at 10 µM (Androgen (Testosterone))?
The inhibition at 10 µM was 3%.

What about the inhibition at 10 µM (Progesterone PR-B) of the same molecule?
The inhibition at 10 µM was -15%.

And the inhibition at 10 µM (HMG-CoA Reductase)?
Its inhibition at 10 µM is -2%.

And the inhibition at 10 µM (Peptidase, Renin)?
The inhibition at 10 µM was 6%.

And the inhibition at 10 µM (Monoamine Oxidase MAO-B)?
The inhibition at 10 µM was -3%.

And the inhibition at 10 µM [4]?
The inhibition at 10 µM was -1%.

What about the inhibition at 10 µM (Monoamine Oxidase MAO-A) of the same molecule?
Its inhibition at 10 µM is 2%.

What about the inhibition at 10 µM [5] of the same molecule?
The inhibition at 10 µM was 3%.

What about the inhibition at 10 µM (CYP450, 19) of the same molecule?
Its inhibition at 10 µM is 12%.

What about the inhibition at 10 µM [6] of the same molecule?
Its inhibition at 10 µM is 1%.

What about the inhibition at 10 µM (Opiate μ (OP3, MOP)) of the same molecule?
The inhibition at 10 µM was -5%.

And the inhibition at 10 µM [7]?
The inhibition at 10 µM was 4%.

What about the inhibition at 10 µM (Muscarinic M3) of the same molecule?
The inhibition at 10 µM was 4%.

What about the inhibition at 10 µM (Adrenergic β1) of the same molecule?
Its inhibition at 10 µM is -4%.

And the inhibition at 10 µM (Estrogen ERβ)?
The inhibition at 10 µM was 7%.

What about the inhibition at 10 µM (Adrenergic α2A) of the same molecule?
The inhibition at 10 µM was -5%.

And the inhibition at 10 µM (Potassium Channel hERG)?
The inhibition at 10 µM was 10%.

And the inhibition at 10 µM (Estrogen ERα)?
Its inhibition at 10 µM is -6%.

And the inhibition at 10 µM (Dopamine D1)?
The inhibition at 10 µM was 3%.

What about the inhibition at 10 µM (Angiotensin AT1) of the same molecule?
The inhibition at 10 µM was -1%.

And the inhibition at 10 µM (Muscarinic M2)?
Its inhibition at 10 µM is -7%.

What about the inhibition at 10 µM (Dopamine D3) of the same molecule?
Its inhibition at 10 µM is 1%.

What about the inhibition at 10 µM (Adenosine A1) of the same molecule?
The inhibition at 10 µM was -2%.

What about the inhibition at 10 µM (Histamine H1) of the same molecule?
The inhibition at 10 µM was -3%.

And the inhibition at 10 µM (Adenosine A2A)?
Its inhibition at 10 µM is -6%.

What about the inhibition at 10 µM (Sigma σ1) of the same molecule?
Its inhibition at 10 µM is 7%.

What about the inhibition at 10 µM (Angiotensin AT2) of the same molecule?
The inhibition at 10 µM was 7%.

And the inhibition at 10 µM (Dopamine D2s)?
The inhibition at 10 µM was 26%.

What about the inhibition at 10 µM (Sigma σ2) of the same molecule?
Its inhibition at 10 µM is 12%.

What about the inhibition at 10 µM (Adrenergic β2) of the same molecule?
Its inhibition at 10 µM is 7%.

What about the inhibition at 10 µM (Adrenergic α1A) of the same molecule?
The inhibition at 10 µM was 2%.

What about the inhibition at 10 µM (Adrenergic α1B) of the same molecule?
Its inhibition at 10 µM is 0%.

What about the inhibition at 10 µM (Muscarinic M5) of the same molecule?
Its inhibition at 10 µM is 5%.

And the inhibition at 10 µM (Glucocorticoid)?
The inhibition at 10 µM was 8%.
